Test results: patent US9890153B2, “Substituted 1H-pyrrolo [2, 3-b] pyridine and 1H-pyrazolo [3, 4-b] pyridine derivatives as salt inducible kinase 2 (SIK2) inhibitors” (Arrien Pharmaceuticals LLC, priority 2012, dated 2018)

Legend:
Assay type in all cases: biochemical
[1] = target: SIK2 (QIK) (SEQ ID NO: 11) (Homo sapiens, UniProt Q9H0K1); assay: SIK2 kinase assay (radiometric, 10 μM ATP); settings: read-out: SIK2 (QIK) (SEQ ID NO: 11) kinase inhibition result
Procedure: Procedure: Enzyme was incubated with substrate peptide in reaction buffer in the presence and absence of test compounds or Staurosporine. All additions were done on ice, followed by the addition of ATP mix. Wells were uniformly mixed using an Eppendorff plate shaker and incubated at 30° C. for 20 min, and stopped by the addition of 5 μL of 3% phosphoric acid. Volume was increased to 100 μL by adding 0.8% phosphoric acid which was then transferred to PC filter mats (Millipore), pre-equilibrated with 70% ethanol and water. Plates were washed thrice with 100 μL 0.8% phosphoric acid and dried for an hour at 60° C.

[2] = target: T1, SIK1 (SEQ ID NO: 10) (Homo sapiens, UniProt P57059); assay: Protein kinase assay, SIK1; settings: read-out: SIK1 (SEQ ID NO: 10) kinase inhibition result
T1 construct: Reaction Biology Corporation (assay service, HotSpot panel)
T1 sequence (P57059 whole entry): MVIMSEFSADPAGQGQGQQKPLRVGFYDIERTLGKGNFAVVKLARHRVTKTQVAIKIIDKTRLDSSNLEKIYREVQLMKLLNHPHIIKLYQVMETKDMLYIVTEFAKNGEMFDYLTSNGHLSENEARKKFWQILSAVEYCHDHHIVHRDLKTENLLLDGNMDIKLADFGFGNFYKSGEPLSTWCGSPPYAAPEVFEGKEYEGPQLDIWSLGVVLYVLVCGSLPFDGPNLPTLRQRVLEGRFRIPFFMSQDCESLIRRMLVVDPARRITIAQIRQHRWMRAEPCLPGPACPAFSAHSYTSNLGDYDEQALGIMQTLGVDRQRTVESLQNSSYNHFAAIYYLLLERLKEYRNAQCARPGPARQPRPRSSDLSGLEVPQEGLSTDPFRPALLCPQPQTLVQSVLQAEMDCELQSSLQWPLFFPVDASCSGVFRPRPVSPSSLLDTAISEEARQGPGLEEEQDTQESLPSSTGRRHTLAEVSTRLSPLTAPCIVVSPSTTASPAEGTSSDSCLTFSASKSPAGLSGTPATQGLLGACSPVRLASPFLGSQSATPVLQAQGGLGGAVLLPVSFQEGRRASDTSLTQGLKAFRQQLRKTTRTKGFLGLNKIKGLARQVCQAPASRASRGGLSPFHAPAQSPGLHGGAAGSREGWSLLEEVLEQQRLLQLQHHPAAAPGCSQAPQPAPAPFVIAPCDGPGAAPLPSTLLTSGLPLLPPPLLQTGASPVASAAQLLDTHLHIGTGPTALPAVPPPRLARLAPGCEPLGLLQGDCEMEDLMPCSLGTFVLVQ
Procedure: (§1) Briefly, specific kinase/substrate pairs along with required cofactors were prepared in reaction buffer; 20 mM Hepes (pH 7.5), 10 mMmgCl2, 1 mM EGTA, 0.02% Brij35, 0.02 mg/ml BSA, 0.1 mM Na3VO4, 2 mM DTT, 1% DMSO. Compounds were delivered into the reaction, followed ˜20 min later by addition of a mixture of ATP (Sigma) and 33P ATP (PerkinElmer) to a final concentration of 10 μM. […] IC50 values and curve fits were obtained using Prism (GraphPad Software). Kinome tree representations were prepared using Kinome Mapper (http://www.reactionbiology.com/apps/kinome/mapper/LaunchKinome.htm).

[3] = target: T2, SIK3 (QSK) (SEQ ID NO: 24) (Homo sapiens, UniProt Q9Y2K2); assay: Protein kinase assay, SIK3; settings: read-out: SIK3 (QSK) (SEQ ID NO: 24) kinase inhibition result
T2 construct: Reaction Biology Corporation (assay service, HotSpot panel)
T2 sequence (Q9Y2K2 whole entry): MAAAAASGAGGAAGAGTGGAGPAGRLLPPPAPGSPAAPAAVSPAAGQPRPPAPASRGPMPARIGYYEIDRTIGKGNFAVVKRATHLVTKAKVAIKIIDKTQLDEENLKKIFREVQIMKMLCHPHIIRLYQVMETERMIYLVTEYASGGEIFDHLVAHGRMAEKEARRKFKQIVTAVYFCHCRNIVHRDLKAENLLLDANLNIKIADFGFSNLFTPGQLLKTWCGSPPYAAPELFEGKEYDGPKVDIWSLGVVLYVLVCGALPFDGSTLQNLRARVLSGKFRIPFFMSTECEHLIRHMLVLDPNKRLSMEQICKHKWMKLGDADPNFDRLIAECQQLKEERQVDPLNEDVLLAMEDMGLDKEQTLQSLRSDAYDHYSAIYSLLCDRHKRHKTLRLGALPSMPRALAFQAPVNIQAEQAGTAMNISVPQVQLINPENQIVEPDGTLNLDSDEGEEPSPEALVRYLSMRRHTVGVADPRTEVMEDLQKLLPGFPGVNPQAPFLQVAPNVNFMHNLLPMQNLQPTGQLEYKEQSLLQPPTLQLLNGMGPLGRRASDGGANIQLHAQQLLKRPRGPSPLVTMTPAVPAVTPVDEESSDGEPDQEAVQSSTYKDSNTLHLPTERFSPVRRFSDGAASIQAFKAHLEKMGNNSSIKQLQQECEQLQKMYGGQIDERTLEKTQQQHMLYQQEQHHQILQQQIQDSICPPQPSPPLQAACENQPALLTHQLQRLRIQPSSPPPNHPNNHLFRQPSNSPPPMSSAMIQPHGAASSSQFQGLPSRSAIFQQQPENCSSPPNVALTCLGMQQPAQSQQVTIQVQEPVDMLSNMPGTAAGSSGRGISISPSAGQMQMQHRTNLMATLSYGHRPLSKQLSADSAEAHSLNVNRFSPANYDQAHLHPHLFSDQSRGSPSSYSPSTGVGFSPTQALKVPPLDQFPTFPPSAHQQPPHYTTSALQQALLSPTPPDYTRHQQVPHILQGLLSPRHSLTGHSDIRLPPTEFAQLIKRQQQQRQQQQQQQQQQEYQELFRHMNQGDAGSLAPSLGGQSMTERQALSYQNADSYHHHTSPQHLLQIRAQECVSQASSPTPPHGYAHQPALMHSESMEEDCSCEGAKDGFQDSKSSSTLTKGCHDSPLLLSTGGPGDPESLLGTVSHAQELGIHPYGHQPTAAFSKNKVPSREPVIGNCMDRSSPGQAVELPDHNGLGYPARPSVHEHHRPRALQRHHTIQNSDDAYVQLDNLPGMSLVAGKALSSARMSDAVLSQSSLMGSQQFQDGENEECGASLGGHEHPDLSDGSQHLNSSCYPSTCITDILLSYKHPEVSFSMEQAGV
Procedure: as §1

Sequence of SIK2 (QIK) (SEQ ID NO: 11) (Q9H0K1 whole entry): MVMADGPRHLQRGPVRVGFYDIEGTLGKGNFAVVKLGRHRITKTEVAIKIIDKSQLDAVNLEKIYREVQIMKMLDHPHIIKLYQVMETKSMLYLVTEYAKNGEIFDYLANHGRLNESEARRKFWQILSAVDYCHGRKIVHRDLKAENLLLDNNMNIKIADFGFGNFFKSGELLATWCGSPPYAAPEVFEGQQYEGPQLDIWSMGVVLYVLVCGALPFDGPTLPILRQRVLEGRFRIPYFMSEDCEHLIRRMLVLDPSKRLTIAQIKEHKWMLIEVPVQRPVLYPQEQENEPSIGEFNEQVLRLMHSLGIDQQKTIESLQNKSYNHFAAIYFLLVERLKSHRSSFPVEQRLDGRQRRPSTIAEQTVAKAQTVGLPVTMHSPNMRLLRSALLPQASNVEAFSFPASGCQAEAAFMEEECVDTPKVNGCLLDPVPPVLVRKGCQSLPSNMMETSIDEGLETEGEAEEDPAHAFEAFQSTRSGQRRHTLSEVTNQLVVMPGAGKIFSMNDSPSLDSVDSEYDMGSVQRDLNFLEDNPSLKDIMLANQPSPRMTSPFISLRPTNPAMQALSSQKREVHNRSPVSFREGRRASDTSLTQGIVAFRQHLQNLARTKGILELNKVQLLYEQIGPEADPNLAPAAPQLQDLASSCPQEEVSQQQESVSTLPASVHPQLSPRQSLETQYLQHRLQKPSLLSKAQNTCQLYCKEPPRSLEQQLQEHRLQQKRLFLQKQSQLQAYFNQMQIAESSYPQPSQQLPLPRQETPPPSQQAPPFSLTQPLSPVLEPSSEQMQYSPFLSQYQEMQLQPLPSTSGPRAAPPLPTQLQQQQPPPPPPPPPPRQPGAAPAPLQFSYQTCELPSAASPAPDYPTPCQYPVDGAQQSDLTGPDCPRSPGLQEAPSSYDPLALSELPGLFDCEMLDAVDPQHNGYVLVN

IC50 [1] | IC50 [2] | IC50 [3] | Compound
> 100 nM | > 1000 nM | > 1000 nM | CN1CCC(n2cc(-c3cnc4[nH]cc(-c5ccc6c(c5)OC(F)(F)O6)c4c3)cn2)CC1 [Example 220, 3-(2,2-difluorobenzo[d][1,3]dioxol-5-yl)-5-(1-(1-methylpiperidin-4-yl)-1H-pyrazol-4-yl)-1H-pyrrolo[2,3-b]pyridine]
< 100 nM | < 100 nM | < 100 nM | FC1(F)Oc2cccc(-c3c[nH]c4ncc(-c5cnn(C6CCNCC6)c5)cc34)c2O1 [Example 209, 3-(2,2-difluorobenzo[d][1,3]dioxol-4-yl)-5-(1-(piperidin-4-yl)-1H-pyrazol-4-yl)-1H-pyrrolo[2,3-b]pyridine]
< 100 nM | > 100 nM | < 100 nM | CN(C(C)(C)C)S(=O)(=O)c1cccc(-c2cnc3[nH]cc(-c4ccc5c(c4)OC(F)(F)O5)c3c2)c1 [Example 202, N-(tert-butyl)-3-(3-(2,2-difluorobenzo[d][1,3]dioxol-5-yl) 1H-pyrrolo[2,3-b]pyridin-5-yl)-N-methylbenzenesulfonamide]
< 100 nM | > 100 nM | < 100 nM | FC1(F)Oc2ccc(-c3c[nH]c4ncc(-c5cnn(C6CCNCC6)c5)cc34)cc2O1 [Example 206, 3-(2,2-difluorobenzo[d][1,3]dioxol-5-yl)-5-(1-(piperidin-4-yl)-1H-pyrazol-4-yl)-1H-pyrrolo[2,3-b]pyridine]
> 100 nM | > 1000 nM | > 100 nM | CCCS(=O)(=O)N1CCC(n2cc(-c3cnc4[nH]cc(-c5cc(F)cc(F)c5OC)c4c3)cn2)CC1 [Example 216, 3-(3,5-difluoro-2-methoxyphenyl)-5-(1-(1-(propylsulfonyl)piperidin-4-yl)-1H-pyrazol-4-yl)-1H-pyrrolo[2,3-b]pyridine]
> 1000 nM | > 1000 nM | > 1000 nM | CCS(=O)(=O)N1CCC(n2cc(-c3cnc4[nH]cc(-c5ccc6c(c5)OC(F)(F)O6)c4c3)cn2)CC1 [Example 222, 3-(2,2-difluorobenzo[d][1,3]dioxol-5-yl)-5-(1-(1-(ethylsulfonyl)piperidin-4-yl)-1H-pyrazol-4-yl)-1H-pyrrolo[2,3-b]pyridine]
> 1000 nM | > 1000 nM | > 1000 nM | CCCS(=O)(=O)N1CCC(n2cc(-c3cnc4[nH]cc(-c5ccc6c(c5)OC(F)(F)O6)c4c3)cn2)CC1 [Example 223, 3-(2,2-difluorobenzo[d][1,3]dioxol-5-yl)-5-(1-(1-(propylsulfonyl)piperidin-4-yl)-1H-pyrazol-4-yl)-1H-pyrrolo[2,3-b]pyridine]
> 1000 nM | > 1000 nM | > 1000 nM | CS(=O)(=O)N1CCC(n2cc(-c3cnc4[nH]cc(-c5ccc6c(c5)OC(F)(F)O6)c4c3)cn2)CC1 [Example 221, 3-(2,2-difluorobenzo[d][1,3]dioxol-5-yl)-5-(1-(1-(methylsulfonyl)piperidin-4-yl)-1H-pyrazol-4-yl)-1H-pyrrolo[2,3-b]pyridine]
< 100 nM | > 100 nM | < 100 nM | COc1c(F)cccc1-c1c[nH]c2ncc(-c3csc(N4CCOCC4)n3)cc12 [Example 207, 4-(4-(3-(3-fluoro-2-methoxyphenyl)-1H-pyrrolo[2,3-b]pyridin-5-yl)thiazol-2-yl)morpholine]
< 100 nM | > 100 nM | < 100 nM | FC1(F)Oc2ccc(-c3c[nH]c4ncc(-c5ccc(CN6CCCCC6)s5)cc34)cc2O1 [Example 204, 3-(2,2-difluorobenzo[d][1,3]dioxol-5-yl)-5-(5-(piperidin-1-ylmethyl)thiophen-2-yl)-1H-pyrrolo[2,3-b]pyridine]
< 100 nM | > 100 nM | < 100 nM | COc1c(F)cc(F)cc1-c1c[nH]c2ncc(-n3cc(N4CCN(CCO)CC4)cn3)cc12 [Example 218, 2-(4-(1-(3-(3,5-difluoro-2-methoxyphenyl)-1H-pyrrolo[2,3-b]pyridin-5-yl)-1H-pyrazol-4-yl)piperazin-1-yl)ethanol]

More lines, now with the values behind:

Compound | IC50 [1] | IC50 [2] | IC50 [3]
COc1c(F)cc(F)cc1-c1c[nH]c2ncc(-c3cccc(S(=O)(=O)N(C)C)c3)cc12 [Example 185, 3-(3-(3,5-difluoro-2-methoxyphenyl)-1H-pyrrolo[2,3-b]pyridin-5-yl)-N,N-dimethylbenzenesulfonamide] | < 100 nM | > 1000 nM | > 100 nM
COc1c(F)cc(F)cc1-c1c[nH]c2ncc(-c3ccc(CN4CCCC4)s3)cc12 [Example 177, 3-(3,5-difluoro-2-methoxyphenyl)-5-(5-(pyrrolidin-1-ylmethyl)thiophen-2-yl)-1H-pyrrolo[2,3-b]pyridine] | < 100 nM | > 1000 nM | > 100 nM
O=S(=O)(c1ccc(-c2c[nH]c3nccc(-c4ccsc4)c23)cc1)N1CCCC1 [Example 98, 3-(4-(pyrrolidin-1-ylsulfonyl)phenyl)-4-(thiophen-3-yl)-1H-pyrrolo[2,3-b]pyridine] | > 1000 nM | > 1000 nM | > 1000 nM
FC1(F)Oc2ccc(-c3c[nH]c4ncc(-c5ccc(CN6CCOCC6)s5)cc34)cc2O1 [Example 200] | < 100 nM | > 100 nM | < 100 nM
O=S(=O)(c1cccc(-c2c[nH]c3nccc(-c4ccsc4)c23)c1)N1CCCC1 [Example 97, 3-(3-(pyrrolidin-1-ylsulfonyl)phenyl)-4-(thiophen-3-yl)-1H-pyrrolo[2,3-b]pyridine] | > 1000 nM | > 1000 nM | > 1000 nM
FC1(F)Oc2ccc(-c3c[nH]c4ncc(-c5cnc(N6CCOCC6)s5)cc34)cc2O1 [Example 201, 4-(5-(3-(2,2-difluorobenzo[d][1,3]dioxol-5-yl)-1H-pyrrolo[2,3-b]pyridin-5-yl)thiazol-2-yl)morpholine] | > 1000 nM | > 1000 nM | > 1000 nM
COc1c(F)cccc1-c1c[nH]c2ncc(-c3ccc(CN4CCCCC4)s3)cc12 [Example 175, 3-(3-fluoro-2-methoxyphenyl)-5-(5-(piperidin-1-ylmethyl)thiophen-2-yl)-1H-pyrrolo[2,3-b]pyridine] | < 100 nM | > 1000 nM | > 100 nM
Oc1c(F)cccc1-c1c[nH]c2ncc(-c3ccc(CN4CCOCC4)s3)cc12 [Example 193, 2-fluoro-6-(5-(5-(morpholinomethyl)thiophen-2-yl)-1H-pyrrolo[2,3-b]pyridin-3-yl)phenol] | < 100 nM | > 100 nM | > 100 nM
COc1cc(Cl)ccc1-c1n[nH]c2nccc(-c3ccsc3)c12 [Example 6, 3-(4-chloro-2-methoxyphenyl)-4-(thiophen-3-yl)-1H-pyrazolo[3,4-b]pyridine] | > 100 nM | > 100 nM | > 1000 nM
COc1c(F)cccc1-c1c[nH]c2ncc(-c3cnc(N4CCOCC4)s3)cc12 [Example 176, 4-(5-(3-(3-fluoro-2-methoxyphenyl)-1H-pyrrolo[2,3-b]pyridin-5-yl)thiazol-2-yl)morpholine] | < 100 nM | > 1000 nM | > 100 nM
Fc1cccc(-c2c[nH]c3ncc(-c4ccc(CN5CCOCC5)s4)cc23)c1Cl [Example 133] | < 100 nM | > 1000 nM | > 100 nM
CN(C(C)(C)C)S(=O)(=O)c1cccc(-c2cnc3[nH]cc(-c4cccc5c4OC(F)(F)O5)c3c2)c1 [Example 196, N-(tertbutyl)-3-(3-(2,2-difluorobenzo[d][1,3]dioxol-4-yl)-1H-pyrrolo[2,3-b]pyridin-5-yl)-N-methylbenzene-sulfonamide] | < 100 nM | > 100 nM | < 100 nM
COc1c(F)cc(F)cc1-c1c[nH]c2ncc(-c3cccc(S(=O)(=O)N4CCCC4)c3)cc12 [Example 183, 3-(3,5-difluoro-2-methoxyphenyl)-5-(3-(pyrrolidin-1-ylsulfonyl)phenyl)-1H-pyrrolo[2,3-b]pyridine] | < 100 nM | > 1000 nM | > 100 nM
COc1c(F)cccc1-c1c[nH]c2ncc(-c3ccc(CN4CCOCC4)s3)cc12 [Example 142, 4-((5-(3-(3-fluoro-2-methoxyphenyl)-1H-pyrrolo[2,3-b]pyridin-5-yl)thiophen-2-yl)methyl)morpholine] | < 100 nM | > 1000 nM | < 100 nM
Fc1c(-c2c[nH]c3ncc(-c4ccsc4)cc23)ccnc1Cl [Example 141, 3-(2-chloro-3-fluoropyridin-4-yl)-5-(thiophen-3-yl)-1H-pyrrolo[2,3-b]pyridine] | < 100 nM | > 1000 nM | > 100 nM
Cc1nc(Nc2cnc3[nH]cc(-c4cccc(F)c4Cl)c3c2)sc1Cl [Example 134, 5-chloro-N-(3-(2-chloro-3-fluorophenyl)-1H-pyrrolo[2,3-b]pyridin-5-yl)-4-methylthiazol-2-amine] | > 100 nM | > 100 nM | > 1000 nM
CN(C)S(=O)(=O)c1cccc(-c2cnc3[nH]cc(-c4cccc(F)c4Cl)c3c2)c1 [Example 135, 3-(3-(2-chloro-3-fluorophenyl)-1H-pyrrolo[2,3-b]pyridin-5-yl)-N,N-dimethylbenzenesulfonamide] | < 100 nM | > 100 nM | > 100 nM
